Results reported in paper PMC4544649, “A psychrotolerant strain of Serratia marcescens (MTCC 4822) produces laccase at wide temperature and pH range” (AMB Express, 2015).

Test system: laccase
Details: 0.10 M citrate-phosphate buffer pH 2.5, room temperature; ABTS 0.05-1.00 mM; partially purified enzyme

## CCn1c(=NN=c2sc3cc(S(=O)(=O)O)ccc3n2CC)sc2cc(S(=O)(=O)O)ccc21 [ABTS, 2, 2'-azino-bis (3-ethylbenzothiazoline-6-sulphonic acid)]
  Km: 100 µM
